Results as given in the NIST ThermoML archive (doi:10.1021/acs.jced.8b00662).

Assay: xn = mol fraction of the nth substance listed
Details: 100 kPa, Liquid; for viscosity: Falling or rolling sphere viscometry; for mass density: Vibrating tube method

CC(C)C1CCCCC1 [(1-methylethyl)cyclohexane] + OCC1CC1
Details | mass density [kg/m3] | viscosity [mPa·s]
293.15 K, x1 = 0.0996 | 891.76 | –
293.15 K, x1 = 0.1003 | – | 3.277
293.15 K, x1 = 0.1991 | 874.27 | 2.592
293.15 K, x1 = 0.2995 | 859.61 | 2.18
293.15 K, x1 = 0.3996 | 847.35 | 1.862
293.15 K, x1 = 0.4993 | 836.86 | 1.621
293.15 K, x1 = 0.5997 | 827.69 | –
293.15 K, x1 = 0.619 | – | 1.406
293.15 K, x1 = 0.7011 | 819.71 | 1.288
293.15 K, x1 = 0.7967 | 812.9 | 1.192
293.15 K, x1 = 0.9026 | 806.51 | 1.115
293.15 K, x1 = 1 | 802.14 | 1.093
298.15 K, x1 = 0.0996 | 887.68 | –
298.15 K, x1 = 0.1003 | – | 2.876
298.15 K, x1 = 0.1991 | 870.17 | 2.286
298.15 K, x1 = 0.2995 | 855.52 | 1.937
298.15 K, x1 = 0.3996 | 843.25 | 1.668
298.15 K, x1 = 0.4993 | 832.77 | 1.463
298.15 K, x1 = 0.5997 | 823.61 | –
298.15 K, x1 = 0.619 | – | 1.281
298.15 K, x1 = 0.7011 | 815.65 | 1.18
298.15 K, x1 = 0.7967 | 808.85 | 1.099
298.15 K, x1 = 0.9026 | 802.52 | 1.033
298.15 K, x1 = 1 | 798.24 | 1.016
303.15 K, x1 = 0.0996 | 883.58 | –
303.15 K, x1 = 0.1003 | – | 2.523
303.15 K, x1 = 0.1991 | 866.05 | 2.028
303.15 K, x1 = 0.2995 | 851.39 | 1.729
303.15 K, x1 = 0.3996 | 839.12 | 1.499
303.15 K, x1 = 0.4993 | 828.64 | 1.325
303.15 K, x1 = 0.5997 | 819.5 | –
303.15 K, x1 = 0.619 | – | 1.17
303.15 K, x1 = 0.7011 | 811.56 | 1.085
303.15 K, x1 = 0.7967 | 804.8 | 1.015
303.15 K, x1 = 0.9026 | 798.52 | 0.958
303.15 K, x1 = 1 | 794.34 | 0.947
308.15 K, x1 = 0.0996 | 879.43 | –
308.15 K, x1 = 0.1003 | – | 2.227
308.15 K, x1 = 0.1991 | 861.89 | 1.807
308.15 K, x1 = 0.2995 | 847.23 | 1.551
308.15 K, x1 = 0.3996 | 834.96 | 1.356
308.15 K, x1 = 0.4993 | 824.49 | 1.207
308.15 K, x1 = 0.5997 | 815.37 | –
308.15 K, x1 = 0.619 | – | 1.075
308.15 K, x1 = 0.7011 | 807.46 | 1.001
308.15 K, x1 = 0.7967 | 800.75 | 0.941
308.15 K, x1 = 0.9026 | 794.49 | 0.893
308.15 K, x1 = 1 | 790.43 | 0.886
313.15 K, x1 = 0.0996 | 875.25 | –
313.15 K, x1 = 0.1003 | – | 1.912
313.15 K, x1 = 0.1991 | 857.7 | 1.617
313.15 K, x1 = 0.2995 | 843.04 | 1.399
313.15 K, x1 = 0.3996 | 830.77 | 1.231
313.15 K, x1 = 0.4993 | 820.31 | 1.103
313.15 K, x1 = 0.5997 | 811.21 | –
313.15 K, x1 = 0.619 | – | 0.99
313.15 K, x1 = 0.7011 | 803.33 | 0.927
313.15 K, x1 = 0.7967 | 796.66 | 0.876
313.15 K, x1 = 0.9026 | 790.46 | 0.834
313.15 K, x1 = 1 | 786.51 | 0.831
318.15 K, x1 = 0.0996 | 871.02 | –
318.15 K, x1 = 0.1003 | – | 1.706
318.15 K, x1 = 0.1991 | 853.46 | 1.454
318.15 K, x1 = 0.2995 | 838.79 | 1.266
318.15 K, x1 = 0.3996 | 826.54 | 1.121
318.15 K, x1 = 0.4993 | 816.09 | 1.012
318.15 K, x1 = 0.5997 | 807.02 | –
318.15 K, x1 = 0.619 | – | 0.916
318.15 K, x1 = 0.7011 | 799.17 | 0.861
318.15 K, x1 = 0.7967 | 792.54 | 0.817
318.15 K, x1 = 0.9026 | 786.41 | 0.782
318.15 K, x1 = 1 | 782.59 | 0.782
323.15 K, x1 = 0.0996 | 866.78 | –
323.15 K, x1 = 0.1003 | – | 1.525
323.15 K, x1 = 0.1991 | 849.2 | 1.312
323.15 K, x1 = 0.2995 | 834.53 | 1.151
323.15 K, x1 = 0.3996 | 822.28 | 1.027
323.15 K, x1 = 0.4993 | 811.84 | 0.932
323.15 K, x1 = 0.5997 | 802.8 | –
323.15 K, x1 = 0.619 | – | 0.849
323.15 K, x1 = 0.7011 | 794.99 | 0.802
323.15 K, x1 = 0.7967 | 788.4 | 0.764
323.15 K, x1 = 0.9026 | 782.33 | 0.735
323.15 K, x1 = 1 | 778.66 | 0.738
328.15 K, x1 = 0.0996 | 862.47 | –
328.15 K, x1 = 0.1003 | – | 1.372
328.15 K, x1 = 0.1991 | 844.88 | 1.189
328.15 K, x1 = 0.2995 | 830.2 | 1.05
328.15 K, x1 = 0.3996 | 817.96 | 0.943
328.15 K, x1 = 0.4993 | 807.55 | 0.861
328.15 K, x1 = 0.5997 | 798.54 | –
328.15 K, x1 = 0.619 | – | 0.791
328.15 K, x1 = 0.7011 | 790.77 | 0.75
328.15 K, x1 = 0.7967 | 784.24 | 0.717
328.15 K, x1 = 0.9026 | 778.25 | 0.692
328.15 K, x1 = 1 | 774.72 | 0.698
333.15 K, x1 = 0.0996 | 858.1 | –
333.15 K, x1 = 0.1003 | – | 1.239
333.15 K, x1 = 0.1991 | 840.5 | 1.082
333.15 K, x1 = 0.2995 | 825.83 | 0.961
333.15 K, x1 = 0.3996 | 813.6 | 0.869
333.15 K, x1 = 0.4993 | 803.22 | 0.799
333.15 K, x1 = 0.5997 | 794.24 | –
333.15 K, x1 = 0.619 | – | 0.738
333.15 K, x1 = 0.7011 | 786.52 | 0.702
333.15 K, x1 = 0.7967 | 780.04 | 0.674
333.15 K, x1 = 0.9026 | 774.14 | 0.654
333.15 K, x1 = 1 | 770.77 | 0.661
338.15 K, x1 = 0.0996 | 853.67 | –
338.15 K, x1 = 0.1003 | – | 1.124
338.15 K, x1 = 0.1991 | 836.06 | 0.988
338.15 K, x1 = 0.2995 | 821.41 | 0.883
338.15 K, x1 = 0.3996 | 809.2 | 0.804
338.15 K, x1 = 0.4993 | 798.85 | 0.743
338.15 K, x1 = 0.5997 | 789.91 | –
338.15 K, x1 = 0.619 | – | 0.69
338.15 K, x1 = 0.7011 | 782.24 | 0.66
338.15 K, x1 = 0.7967 | 775.82 | 0.636
338.15 K, x1 = 0.9026 | 770.01 | 0.619
338.15 K, x1 = 1 | 766.81 | 0.628
343.15 K, x1 = 0.0996 | 849.17 | –
343.15 K, x1 = 0.1003 | – | 1.023
343.15 K, x1 = 0.1991 | 831.57 | 0.905
343.15 K, x1 = 0.2995 | 816.93 | 0.815
343.15 K, x1 = 0.3996 | 804.75 | 0.746
343.15 K, x1 = 0.4993 | 794.44 | 0.693
343.15 K, x1 = 0.5997 | 785.54 | –
343.15 K, x1 = 0.619 | – | 0.648
343.15 K, x1 = 0.7011 | 777.93 | 0.622
343.15 K, x1 = 0.7967 | 771.58 | 0.601
343.15 K, x1 = 0.9026 | 765.88 | 0.587
343.15 K, x1 = 1 | 762.84 | 0.598
